{
  "source": "patent US20100323031A1",
  "about": "“Synergistic combination to enhance blood glucose and insulin metabolism” (GLYKON TECHNOLOGIES GROUP, LLC, priority 2009, published 2010)",
  "key": {"[1]": {"system": "streptozotocin (STZ)-induced diabetes", "test": "Pilot animal streptozotocin-induced diabetes trial, blood glucose by glucometer", "type": "in vivo, male Wistar albino rats", "conditions": "STD Herbal 250 mg/kg", "procedure": "The synergism of the formula is reflected in findings in an animal trial of induced diabetes treated with Metformin. To produce streptozotocin (STZ)-induced diabetes in experimental rats, male Wistar albino rats of 12 weeks age were allowed to fast 24 hrs prior to injection with freshly prepared STZ in citrate buffer […] (45 mg/kg, i.p). […] However, an additional arm of similarly-induced diabetic rats that were older and much sicker was added to test the herbal mixture prepared to produce the relative percentages of each ingredient as in Example 1 given above, here termed “STD Herbal.” After an overnight fast, the samples suspended in 5% gum acacia were fed by gastric intubations with a syringe. […] The blood glucose level was determined by using an electronic glucometer (Accu Check, Roche Diagnostic) and the results are tabulated in table 4. n=6 animals in each group. Parenthesis value indicate percentage reduction of blood sugar level; *P<0.01 compared with initial level of blood glucose (0 h) in the respective group. Data were analyzed by repeated measure ANOVA followed by Dunnett test."}, "Male Wistar rats": {"system": "Male Wistar rats", "conditions": "equivalent to 2,170 mg HCA free acid; cited from earlier work"}, "[2]": {"system": "Human morbidly obese diabetics", "conditions": "published literature, U.S. Pat. No. 6,207,714; cited from earlier work"}, "[3]": {"system": "Aged diabetic obese Zucker rat", "conditions": "human-equivalent dose, 6:1 rat to human multiplier; cited from earlier work"}, "Human - sedentary": {"system": "Human - sedentary", "conditions": "3 grams HCA as the free acid equivalent; cited from earlier work"}},
  "note": "Marks after values point to notes of the source that are not given here.",
  "data": [
    {"compound": "CN(C)C(=N)N=C(N)N", "note": "[Metformin]", "values": [
      {"measurement": "Blood glucose level, Initial (0 hr)", "setting": "[1]; 0 hr, before treatment, overnight fast, Metformin 150 mg/kg by gastric intubation, n=6, in mg/dL (unit assumed)", "value": "329.2 ± 5.25"},
      {"measurement": "percentage reduction of blood sugar level, +1 hr", "setting": "[1]; +1 hr vs initial (0 hr), Metformin 150 mg/kg", "value": "(17.49) %"},
      {"measurement": "Blood glucose level, Treatment +1 hr", "setting": "[1]; +1 hr, Metformin 150 mg/kg by gastric intubation, n=6, in mg/dL (unit assumed)", "value": "271.6 ± 4.0"},
      {"measurement": "percentage reduction of blood sugar level, +2 hr", "setting": "[1]; +2 hr vs initial (0 hr), Metformin 150 mg/kg", "value": "(34.87) %"},
      {"measurement": "Blood glucose level, Treatment +2 hr", "setting": "[1]; +2 hr, Metformin 150 mg/kg by gastric intubation, n=6, in mg/dL (unit assumed)", "value": "214.4 ± 3.17*"},
      {"measurement": "percentage reduction of blood sugar level, +3 hr", "setting": "[1]; +3 hr vs initial (0 hr), Metformin 150 mg/kg", "value": "(46.38) %"},
      {"measurement": "Blood glucose level, Treatment +3 hr", "setting": "[1]; +3 hr, Metformin 150 mg/kg by gastric intubation, n=6, in mg/dL (unit assumed)", "value": "176 ± 6.7*"},
      {"measurement": "percentage reduction of blood sugar level, +4 hr", "setting": "[1]; +4 hr vs initial (0 hr), Metformin 150 mg/kg", "value": "(53.52) %"},
      {"measurement": "Blood glucose level, Treatment +4 hr", "setting": "[1]; +4 hr, Metformin 150 mg/kg by gastric intubation, n=6, in mg/dL (unit assumed)", "value": "153 ± 3.31*"}
    ]},
    {"compound": "potassium salt of (−)-hydroxycitric acid", "values": [
      {"measurement": "efficacy in reducing blood glucose at smaller dosage", "setting": "Male Wistar rats", "value": "ineffective"},
      {"measurement": "lowest dose of HCA as free acid equivalent found efficacious in reducing blood glucose", "setting": "[2]", "value": 3, "unit": "grams"}
    ]},
    {"compound": "potassium-calcium salt of (−)-hydroxycitric acid", "values": [
      {"measurement": "lowest stand-alone dose shown to be effective, as HCA free acid equivalent", "setting": "[3]", "value": "3,276 mg"}
    ]},
    {"compound": "O=C([O-])C[C@@](O)(C(=O)[O-])[C@H](O)C(=O)[O-].O=C([O-])C[C@@](O)(C(=O)[O-])[C@H](O)C(=O)[O-].[Ca+2].[Ca+2].[Ca+2]", "note": "[calcium salt, calcium salt of (−)-hydroxycitric acid]", "values": [
      {"measurement": "efficacy in reducing blood glucose", "setting": "Human - sedentary", "value": "ineffective"}
    ]}
  ]
}
